Data: ChEMBL document CHEMBL5352441, “Modulation of FLT3-ITD and CDK9 in acute myeloid leukaemia cells by novel proteolysis targeting chimera (PROTAC)” (2022)
Calls of active or inactive are those of the source. No cut-off for these calls is given here.

Assays:
[1] = biological target: T1, Protein cereblon/Receptor-type tyrosine-protein kinase FLT3 (Homo sapiens) (UniProt P36888+Q96SW2); experiment: PROTAC activity at CRBN/FLT3 in human MV4-11 cells harboring FLT3-ITD mutation assessed as induction of protein degradation at low nanomolar concentrations incubated for 16 hrs by immunoblot analysis; type: cell-based
MV4-11 [2] = experiment: Induction of cell cycle arrest in CRBN-deficient human MV4-11 cells assessed as accumulation of cells at G1 phase at 0.5 uM incubated for 16 hrs by PI staining based flow cytometry analysis (reference value: 54.05%); type: functional
MV4-11 [3] = experiment: Induction of cell cycle arrest in human MV4-11 cells assessed as accumulation of cells at S phase at 2.5 uM incubated for 16 hrs by PI staining based flow cytometry analysis (reference value: 26.16%); type: functional
MV4-11 [4] = experiment: Induction of cell cycle arrest in human MV4-11 cells assessed as accumulation of cells at G2/M phase at 0.004 uM incubated for 16 hrs by PI staining based flow cytometry analysis (reference value: 10.86%); type: functional
MV4-11 [5] = experiment: Induction of cell cycle arrest in human MV4-11 cells assessed as accumulation of cells at G2/M phase at 0.02 uM incubated for 16 hrs by PI staining based flow cytometry analysis (reference value: 10.86%); type: functional
[6] = test system: Receptor-type tyrosine-protein kinase FLT3 (Homo sapiens), P36888 [UNDEFINED MUTATION]; experiment: Inhibition of FLT3 in human MV4-11 cells harboring FLT3-ITD mutation assessed as reduction in STAT5 phosphorylation at Y694 residue at 0.004 to 2.5 uM incubated for 16 hrs by immunoblot analysis; type: cell-based; conditions: dose 0.004-2.5 µM
MV4-11 [7] = experiment: Induction of cell cycle arrest in human MV4-11 cells assessed as accumulation of cells at G1 phase at 0.004 uM incubated for 16 hrs by PI staining based flow cytometry analysis (reference value: 62.97%); type: functional
[8] = biological target: T1, Protein cereblon/Receptor-type tyrosine-protein kinase FLT3 (Homo sapiens); experiment: PROTAC activity at CRBN/FLT3 in human MV4-11 cells at 0.1 to 0.5 uM preincubated for 90 mins with 4-hydroxythalidomide followed by compound addition and further incubated for 16 hrs by immunoblot analysis; type: cell-based; conditions: dose 0.1-0.5 µM
MV4-11 [9] = experiment: Induction of cell cycle arrest in CRBN-deficient human MV4-11 cells assessed as accumulation of cells at S phase at 0.5 uM incubated for 16 hrs by PI staining based flow cytometry analysis (reference value: 36.91%); type: functional
MOLM-13 = experiment: Antiproliferative activity against human MOLM-13 cells harboring FLT3-ITD mutation assessed as cell growth inhibition incubated for 72 hrs by resazurin dye based fluorescence analysis; type: functional
MV4-11 [10] = experiment: Induction of cell cycle arrest in human MV4-11 cells assessed as accumulation of cells at subG1 phase at 0.1 uM incubated for 16 hrs by PI staining based flow cytometry analysis (reference value: 10.51%); type: functional
MV4-11 [11] = experiment: Induction of cell cycle arrest in human MV4-11 cells assessed as accumulation of cells at S phase at 0.5 uM incubated for 16 hrs by PI staining based flow cytometry analysis (reference value: 26.16%); type: functional
MV4-11 [12] = experiment: Induction of apoptosis in human MV4-11 cells assessed as activation of caspase 3 at 0.1 to 0.5 uM preincubated for 90 mins with 4-hydroxythalidomide followed by compound addition and further incubated for 16 hrs in presence of Ac-DEVD-AMC by fluorescence microplate reader analysis; type: functional, cell-based; conditions: dose 0.1-0.5 µM
[13] = biological target: Receptor-type tyrosine-protein kinase FLT3 (Homo sapiens) (UniProt P36888); experiment: Inhibition of FLT3 signalling pathway in human MV4-11 cells assessed as reduction in STAT5 phosphorylation at Y694 residues at 0.1 to 0.5 uM preincubated for 90 mins with 4-hydroxythalidomide followed by compound addition and further incubated for 16 hrs by immunoblot analysis; type: cell-based; conditions: dose 0.1-0.5 µM
MV4-11 [14] = experiment: Downregulation of FLT3 gene expression in human MV4-11 cells at 0.004 to 2.5 uM incubated for 4 hrs by qRT-PCR analysis; type: functional, cell-based; conditions: dose 0.004-2.5 µM
MV4-11 [15] = experiment: Induction of apoptosis in human MV4-11 cells assessed as activation of caspase 7 at 0.1 to 0.5 uM preincubated for 90 mins with 4-hydroxythalidomide followed by compound addition and further incubated for 16 hrs in presence of Ac-DEVD-AMC by fluorescence microplate reader analysis; type: functional, cell-based; conditions: dose 0.1-0.5 µM
MV4-11 [16] = experiment: Induction of cell cycle arrest in human MV4-11 cells assessed as accumulation of cells at subG1 phase at 0.004 uM incubated for 16 hrs by PI staining based flow cytometry analysis (reference value: 10.51%); type: functional
MV4-11 [17] = experiment: Induction of cell cycle arrest in CRBN-deficient human MV4-11 cells assessed as accumulation of cells at S phase at 0.004 uM incubated for 16 hrs by PI staining based flow cytometry analysis (reference value: 36.91%); type: functional
[18] = biological target: CDK9/cyclin T1 (Homo sapiens) (UniProt O60563+P50750); experiment: Inhibition of human CDK9/Cyclin T1 assessed as residual activity at 100 nM relative to control; type: protein-complex assay
MV4-11 [19] = experiment: Induction of cell cycle arrest in human MV4-11 cells assessed as accumulation of cells at G1 phase at 0.5 uM incubated for 16 hrs by PI staining based flow cytometry analysis (reference value: 62.97%); type: functional
HL-60 = experiment: Antiproliferative activity against human HL-60 cells assessed as cell growth inhibition incubated for 72 hrs by resazurin dye based fluorescence analysis; type: functional
THP-1 = experiment: Antiproliferative activity against human THP-1 cells assessed as cell growth inhibition incubated for 72 hrs by resazurin dye based fluorescence analysis; type: functional
MV4-11 [20] = experiment: Induction of cell cycle arrest in human MV4-11 cells assessed as accumulation of cells at S phase at 0.1 uM incubated for 16 hrs by PI staining based flow cytometry analysis (reference value: 26.16%); type: functional
RS4-11 = experiment: Antiproliferative activity against human RS4-11 cells assessed as cell growth inhibition incubated for 72 hrs by resazurin dye based fluorescence analysis; type: functional
[21] = biological target: Receptor-type tyrosine-protein kinase FLT3 (Homo sapiens) (UniProt P36888); experiment: Inhibition of FLT3 autophosphorylation at Y589/591 residue in human MV4-11 cells at 0.1 to 0.5 uM preincubated for 90 mins with 4-hydroxythalidomide followed by compound addition and further incubated for 16 hrs by immunoblot analysis; type: cell-based; conditions: dose 0.1-0.5 µM
[22] = biological target: Receptor-type tyrosine-protein kinase FLT3 (Homo sapiens) (UniProt P36888); experiment: Stabilization of FLT3 in CRBN-deficient human MV4-11 at 0.004 to 2.5 uM incubated for 16 hrs by immunoblot analysis; type: cell-based; conditions: dose 0.004-2.5 µM
MV4-11 [23] = experiment: Induction of apoptosis in CRBN-deficient human MV4-11 cells assessed as activation of caspase 7 at 0.004 to 25 uM incubated for 16 hrs in presence of Ac-DEVD-AMC by fluorescence microplate reader analysis; type: functional, cell-based; conditions: dose 0.004-25 µM
MV4-11 [24] = experiment: Induction of cell cycle arrest in CRBN-deficient human MV4-11 cells assessed as accumulation of cells at sub-G1 phase at 0.1 uM incubated for 16 hrs by PI staining based flow cytometry analysis (reference value: 12.52%); type: functional
MV4-11 [25] = experiment: Induction of cell cycle arrest in CRBN-deficient human MV4-11 cells assessed as accumulation of cells at G2/M phase at 0.5 uM incubated for 16 hrs by PI staining based flow cytometry analysis (reference value: 9.34%); type: functional
MV4-11 [26] = experiment: Downregulation of Bcl-2 gene expression in human MV4-11 cells incubated for 4 hrs by qRT-PCR analysis; type: functional, cell-based; conditions: dose 0.004-2.5 µM

Chain of Receptor-type tyrosine-protein kinase FLT3 (Homo sapiens) (P36888 whole entry): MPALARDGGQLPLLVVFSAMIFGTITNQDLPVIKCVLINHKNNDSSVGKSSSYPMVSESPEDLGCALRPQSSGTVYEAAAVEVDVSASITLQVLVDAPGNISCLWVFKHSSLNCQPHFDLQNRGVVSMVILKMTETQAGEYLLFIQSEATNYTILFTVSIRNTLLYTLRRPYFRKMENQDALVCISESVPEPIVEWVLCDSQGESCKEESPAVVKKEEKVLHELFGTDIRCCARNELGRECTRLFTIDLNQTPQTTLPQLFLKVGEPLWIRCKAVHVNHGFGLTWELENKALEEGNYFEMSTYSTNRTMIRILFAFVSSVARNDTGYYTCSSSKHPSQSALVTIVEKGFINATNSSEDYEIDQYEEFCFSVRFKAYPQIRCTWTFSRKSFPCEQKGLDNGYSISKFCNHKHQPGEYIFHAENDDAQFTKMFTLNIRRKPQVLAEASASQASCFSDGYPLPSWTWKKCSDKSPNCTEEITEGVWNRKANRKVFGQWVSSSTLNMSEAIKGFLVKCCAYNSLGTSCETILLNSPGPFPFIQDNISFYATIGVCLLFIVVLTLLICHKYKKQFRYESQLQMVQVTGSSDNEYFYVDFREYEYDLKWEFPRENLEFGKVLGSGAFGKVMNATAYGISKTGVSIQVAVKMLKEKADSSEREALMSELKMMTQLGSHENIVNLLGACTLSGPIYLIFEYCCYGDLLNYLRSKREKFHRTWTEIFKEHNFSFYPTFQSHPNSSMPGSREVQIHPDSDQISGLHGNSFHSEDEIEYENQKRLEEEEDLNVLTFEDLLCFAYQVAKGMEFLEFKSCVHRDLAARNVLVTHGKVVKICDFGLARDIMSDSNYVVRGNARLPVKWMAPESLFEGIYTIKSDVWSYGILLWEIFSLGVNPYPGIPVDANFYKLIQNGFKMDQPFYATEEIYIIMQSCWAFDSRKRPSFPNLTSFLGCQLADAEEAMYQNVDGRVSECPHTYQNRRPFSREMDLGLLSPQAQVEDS
T1 sequence (P36888 27-993 limits assumed): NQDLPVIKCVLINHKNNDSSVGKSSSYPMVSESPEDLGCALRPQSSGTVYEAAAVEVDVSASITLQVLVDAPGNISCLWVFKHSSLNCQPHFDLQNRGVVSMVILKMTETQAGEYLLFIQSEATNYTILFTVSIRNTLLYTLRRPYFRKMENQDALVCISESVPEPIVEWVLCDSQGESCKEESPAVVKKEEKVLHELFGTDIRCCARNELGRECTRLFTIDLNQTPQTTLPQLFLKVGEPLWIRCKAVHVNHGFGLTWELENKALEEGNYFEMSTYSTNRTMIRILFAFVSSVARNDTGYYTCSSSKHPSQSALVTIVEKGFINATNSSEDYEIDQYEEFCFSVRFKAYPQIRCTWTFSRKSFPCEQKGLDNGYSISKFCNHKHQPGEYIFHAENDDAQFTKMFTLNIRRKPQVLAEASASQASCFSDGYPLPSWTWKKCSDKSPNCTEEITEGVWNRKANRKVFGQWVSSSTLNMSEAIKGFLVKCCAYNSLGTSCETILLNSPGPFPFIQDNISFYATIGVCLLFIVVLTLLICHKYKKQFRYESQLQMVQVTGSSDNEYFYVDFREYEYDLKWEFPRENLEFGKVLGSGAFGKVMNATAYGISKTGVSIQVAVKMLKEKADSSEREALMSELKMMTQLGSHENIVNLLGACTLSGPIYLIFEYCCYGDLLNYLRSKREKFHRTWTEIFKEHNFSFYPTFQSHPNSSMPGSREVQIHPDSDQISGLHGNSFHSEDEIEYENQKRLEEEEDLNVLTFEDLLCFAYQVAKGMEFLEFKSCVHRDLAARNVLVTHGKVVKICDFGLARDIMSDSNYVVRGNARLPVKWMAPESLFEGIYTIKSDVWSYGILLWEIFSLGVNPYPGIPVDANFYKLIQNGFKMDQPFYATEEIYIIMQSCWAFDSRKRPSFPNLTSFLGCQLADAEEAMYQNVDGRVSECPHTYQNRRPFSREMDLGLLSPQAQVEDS
T1 sequence (Q96SW2 whole entry partner): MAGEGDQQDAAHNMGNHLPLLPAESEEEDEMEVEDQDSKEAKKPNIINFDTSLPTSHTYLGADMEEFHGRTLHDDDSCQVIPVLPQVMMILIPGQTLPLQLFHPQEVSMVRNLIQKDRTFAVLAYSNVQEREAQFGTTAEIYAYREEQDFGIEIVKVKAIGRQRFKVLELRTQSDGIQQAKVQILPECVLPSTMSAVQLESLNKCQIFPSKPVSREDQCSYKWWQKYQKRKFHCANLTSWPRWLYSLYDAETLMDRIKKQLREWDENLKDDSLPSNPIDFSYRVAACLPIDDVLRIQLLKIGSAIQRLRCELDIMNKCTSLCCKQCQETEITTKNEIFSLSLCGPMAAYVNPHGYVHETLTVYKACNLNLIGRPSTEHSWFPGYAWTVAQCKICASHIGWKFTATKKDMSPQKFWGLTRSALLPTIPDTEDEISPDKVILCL
Chain of Receptor-type tyrosine-protein kinase FLT3 (Homo sapiens), P36888 [UNDEFINED MUTATION] (P36888 whole entry, looked up, change not shown): as the sequence (P36888 whole entry) above

## NC1CCC(Nc2nc(Nc3ccc(N4CCN(CCOCCOCCNC(=O)CNc5cccc6c5C(=O)N(C5CCC(=O)NC5=O)C6=O)CC4)cc3)c3ncn(C4CCCC4)c3n2)CC1 (stereo not given)
[1]
  Activity: inactive
MV4-11 [2]
  Activity: 90.95%
MV4-11 [3]
  Activity: 34.87%
MV4-11 [4]
  Activity: 9.03%
MV4-11 [5]
  Activity: 5.22%
[6]
  inhibition: Active
MV4-11 [7]
  Activity: 69.48%
[8]
  Activity: inactive
MV4-11 [9]
  Activity: 5.13%
MOLM-13
  GI50: 0.042 µM
MV4-11 [10]
  Activity: 20.86%
MV4-11 [11]
  Activity: 18.55%
MV4-11 [12]
  Activity: inactive
[13]
  inhibition: Active
MV4-11 [14]
  Activity: inactive
MV4-11 [15]
  Activity: inactive
MV4-11 [16]
  Activity: 11.53%
MV4-11 [17]
  Activity: 28.88%
[18]
  Activity: 8%
MV4-11 [19]
  Activity: 74.6%
HL-60
  GI50: 6.12 µM
THP-1
  GI50: 9.99 µM
MV4-11 [20]
  Activity: 6.42%
RS4-11
  GI50: 1.01 µM
[21]
  inhibition: Active
[22]
  Activity: Active
MV4-11 [23]
  Activity: inactive
MV4-11 [24]
  Activity: 17.71%
MV4-11 [25]
  Activity: 3.91%
MV4-11 [26]
  Activity: Dose-Dependent Effect
